Test results published in patent US5530126A, “Process for the preparation of substituted 6-(pyrazol-3yl)-1,4-benzoxazin-3-ones” (Monsanto Company, priority 1994, dated 1996).

Assays:
Type in all cases: in vivo
Annual bluegrass [1] = assay: Pre-emergence herbicide test; conditions: 1.12 kg/ha, read-out: % plant inhibition (Anbg)
How it was run: (§1)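 In this greenhouse test, seeds on compacted topsoil receive the active ingredient in an organic solvent or aqueous carrier, are covered with untreated soil and watered from below; percent inhibition is scored approximately 11 days later.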

Barnyardgrass [2] = assay: Pre-emergence herbicide test; conditions: Echinochloa crus-galli, 1.12 kg/ha, read-out: % plant inhibition (Bygr)
How it was run: as §1

Cocklebur [3] = assay: Pre-emergence herbicide test; conditions: Xanthium strumarium, 1.12 kg/ha, read-out: % plant inhibition (Cobu)
How it was run: as §1

Downy Brome [4] = assay: Pre-emergence herbicide test; conditions: Bromus tectorum, 1.12 kg/ha, read-out: % plant inhibition (Dobr)
How it was run: as §1

Indian Mustard [5] = assay: Pre-emergence herbicide test; conditions: Brassica juncea, 1.12 kg/ha, read-out: % plant inhibition (Inmu)
How it was run: as §1

Morningglory [6] = assay: Pre-emergence herbicide test; conditions: Ipomoea, 1.12 kg/ha, read-out: % plant inhibition (Mogl)
How it was run: as §1

Seedling johnsongrass [7] = assay: Pre-emergence herbicide test; conditions: Sorghum halepense, 1.12 kg/ha, read-out: % plant inhibition (Sejg)
How it was run: as §1

Velvetleaf [8] = assay: Pre-emergence herbicide test; conditions: Abutilon theophrasti, 1.12 kg/ha, read-out: % plant inhibition (Vele)
How it was run: as §1

Wild buckwheat [9] = assay: Pre-emergence herbicide test; conditions: Fallopia convolvulus, 1.12 kg/ha, read-out: % plant inhibition (Wibw)
How it was run: as §1

Yellow nutsedge [10] = assay: Pre-emergence herbicide test; conditions: Cyperus, 1.12 kg/ha, read-out: % plant inhibition (Yens)
How it was run: as §1

Annual bluegrass [11] = assay: Post-emergence herbicide test; conditions: 1.12 kg/ha, read-out: % plant inhibition (Anbg)
How it was run: (§2)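 Emerged annual and perennial plants (2–3 weeks) are sprayed with test compound in a carrier with ~0.4% emulsifier, 1870 L/Ha total volume, atomizer pressure 10 psig. Effects are expressed as % inhibition versus control at approximately 10–14 days and occasionally 24–28 days.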

Barnyardgrass [12] = assay: Post-emergence herbicide test; conditions: Echinochloa crus-galli, 1.12 kg/ha, read-out: % plant inhibition (Bygr)
How it was run: as §2

Cocklebur [13] = assay: Post-emergence herbicide test; conditions: Xanthium strumarium, 1.12 kg/ha, read-out: % plant inhibition (Cobu)
How it was run: as §2

Downy Brome [14] = assay: Post-emergence herbicide test; conditions: Bromus tectorum, 1.12 kg/ha, read-out: % plant inhibition (Dobr)
How it was run: as §2

Indian Mustard [15] = assay: Post-emergence herbicide test; conditions: Brassica juncea, 1.12 kg/ha, read-out: % plant inhibition (Inmu)
How it was run: as §2

Morningglory [16] = assay: Post-emergence herbicide test; conditions: Ipomoea, 1.12 kg/ha, read-out: % plant inhibition (Mogl)
How it was run: as §2

Seedling johnsongrass [17] = assay: Post-emergence herbicide test; conditions: Sorghum halepense, 1.12 kg/ha, read-out: % plant inhibition (Sejg)
How it was run: as §2

Velvetleaf [18] = assay: Post-emergence herbicide test; conditions: Abutilon theophrasti, 1.12 kg/ha, read-out: % plant inhibition (Vele)
How it was run: as §2

Wild buckwheat [19] = assay: Post-emergence herbicide test; conditions: Fallopia convolvulus, 1.12 kg/ha, read-out: % plant inhibition (Wibw)
How it was run: as §2

Yellow nutsedge [20] = assay: Post-emergence herbicide test; conditions: Cyperus, 1.12 kg/ha, read-out: % plant inhibition (Yens)
How it was run: as §2

Row | SMILES | inhibition at 1120 g/ha (Annual bluegrass [1]) [%] | inhibition at 1120 g/ha (Barnyardgrass [2]) [%] | inhibition at 1120 g/ha (Cocklebur [3]) [%] | inhibition at 1120 g/ha (Downy Brome [4]) [%] | inhibition at 1120 g/ha (Indian Mustard [5]) [%] | inhibition at 1120 g/ha (Morningglory [6]) [%] | inhibition at 1120 g/ha (Seedling johnsongrass [7]) [%] | inhibition at 1120 g/ha (Velvetleaf [8]) [%] | inhibition at 1120 g/ha (Wild buckwheat [9]) [%] | inhibition at 1120 g/ha (Yellow nutsedge [10]) [%] | inhibition at 1120 g/ha (Annual bluegrass [11]) [%] | inhibition at 1120 g/ha (Barnyardgrass [12]) [%] | inhibition at 1120 g/ha (Cocklebur [13]) [%] | inhibition at 1120 g/ha (Downy Brome [14]) [%] | inhibition at 1120 g/ha (Indian Mustard [15]) [%] | inhibition at 1120 g/ha (Morningglory [16]) [%] | inhibition at 1120 g/ha (Seedling johnsongrass [17]) [%] | inhibition at 1120 g/ha (Velvetleaf [18]) [%] | inhibition at 1120 g/ha (Wild buckwheat [19]) [%] | inhibition at 1120 g/ha (Yellow nutsedge [20]) [%]
1 | Cn1nc(-c2cc(CC#N)c(Cl)cc2F)c(Cl)c1C(F)(F)F [Compound 115] | 40 | 80 | 20 | 70 | 100 | 80 | 70 | 100 | 90 | 0 | 40 | 80 | 60 | 20 | 60 | 60 | 40 | 100 | 100 | 20
2 | Cn1nc(-c2cc(COCCF)c(Cl)cc2F)c(Cl)c1C(F)(F)F [Compound 116] | 90 | 90 | 50 | 80 | 90 | 90 | 90 | 100 | 100 | 0 | 80 | 80 | 100 | 70 | 80 | 100 | 70 | 100 | 80 | 20
3 | COCCOCc1cc(-c2nn(C)c(C(F)(F)F)c2Cl)c(F)cc1Cl [Compound 117] | 100 | 100 | 70 | 90 | 100 | 90 | 70 | 100 | 100 | 0 | 90 | 100 | 90 | 100 | 90 | 100 | 100 | 100 | 100 | 20
4 | CCOCc1cc(-c2nn(C)c(C(F)(F)F)c2Cl)c(F)cc1Cl [Compound 118] | 100 | 90 | 80 | 100 | 100 | 100 | 90 | 90 | 100 | 0 | 30 | 30 | 80 | 20 | 30 | 60 | 30 | 90 | 100 | 30
